≈ marks a conversion by molar mass, not a printed value. Read-outs that look alike come from different tables or passages of the source.
How the values were obtained:
MDA-MB-231 = experiment: MTT cell proliferation assay, MDA-MB-231; format: cell-based, human; settings: for inhibition at 10 µg/mL / IC50: Homo sapiens, MDA-MB-231
Protocol: (§1) MTT [3-(4,5-dimethylthiazol-2-yl)-2,5-diphenyltetrazolium bromide] incorporation based cell proliferation assay was performed as described previously (Reference). The cytotoxic efficacy of some analogs was evaluated in different cell lines by MTT cell proliferation assay kit (Roche Applied Sciences, Germany). The assay was carried out according to the instruction provided by the vendor. Briefly, in brief, equal numbers of cells was plated in 96-well flat-bottomed plates in 100 μl of medium and were exposed to different analogs selected from 1 to 63 at various concentrations up to 10 μg/ml for a period of three days. Vehicle control culture wells received only a maximum of 0.5% DMSO. Thereafter, 0.5 mg/ml of MTT reagent was added to each well and the microplate was incubated further for 4 h at 37° C. in presence of 5% CO2. Finally, the cells were solubilized by adding solubilizing solution and allowed to incubate at 37° C. overnight. After complete solubilization of the formazan crystals the absorbance was read at 540 nm in a microplate reader (BioRad, USA). The results (mean OD±SD) obtained from quadruplicate wells were used in calculation to determine the inhibition of cell proliferation (50% of inhibitory concentration, IC50) of the test compounds.
(§2) The cytotoxic properties of some analogs were evaluated by MTT incorporation assay. The methodology of the assay procedure was the same as mentioned in example 41.

MCF-7 = experiment: MTT cell proliferation assay, MCF-7; format: cell-based, human; settings: for inhibition at 10 µg/mL / IC50: Homo sapiens, MCF7
Protocol: as §1, §2

potato 5-lipoxygenase = experiment: 5-Lipoxygenase enzyme inhibitory activity; format: biochemical
Protocol: 5-Lipoxygenase enzyme inhibitory activity was measured using the method of Schewe et al. (Adv Enzymol, Vol 58, 191-272, 1986), modified by Reddanna et. al., (Methods of Enzymology, Vol 187, 268-277, 1990). The assay mixture contained 80 μM linoleic acid and sufficient amount of potato 5-lipoxygenase in 50 mM phosphate buffer (pH 6.3). The reaction was initiated by the addition of enzyme buffer mix to linoleic acid and the enzyme activity was monitored as the increase in absorbance at 234 nm. The reaction was monitored for 120 sec and the inhibitory potential of the test substances (29, 31, 33, 34, 35, 36, 39, 40, 43, 44, 46, 47, 48, 49, 50, 54, 57, 59, 62 & 63) was measured by incubating various concentrations of test substances two minutes before the addition of linoleic acid. All assays were performed three times. Percentage inhibition was calculated by comparing the slope of the curve obtained for test substances with that of the control.

A549 = experiment: MTT cell proliferation assay, A549; format: cell-based, human; settings: Homo sapiens, A549; Table 2; 10 ug/ml
Protocol: as §1

[1] = Table 4, 10 μg/ml, read-out: Percentage Inhibition of cell proliferation MDA-MB-231
[2] = Table 4, 10 μg/ml, read-out: Percentage Inhibition of cell proliferation MCF-7
[3] = Table 2, 10 ug/ml, read-out: Inhibition of cell proliferation MDA-MB-231, % at 10 ug/ml
[4] = Table 2, 10 ug/ml, read-out: Inhibition of cell proliferation MCF-7, % at 10 ug/ml

Row | Structure (SMILES) | inhibition at 10 µg/mL (MDA-MB-231; [1]) [%] | inhibition at 10 µg/mL (MCF-7; [2]) [%] | % inhibition at 10 μg/ml (potato 5-lipoxygenase) [%] | % inhibition at 25 μg/ml (potato 5-lipoxygenase) [%] | also measured
1 | CC1CCC2(C)CCC3(C)C(=CC(=O)C4C5(C)CCC(OC(=O)CCC(=O)O)C(C)(C(=O)O)C5CCC43C)C2C1C (stereo not shown) [Analog 4] |  |  |  |  | Percentage Inhibition of cell proliferation MDA-MB-231 (MDA-MB-231; Table 4, 10 μg/ml): 40.7% at 10 μg/ml; Percentage Inhibition of cell proliferation MCF-7 (MCF-7; Table 4, 10 μg/ml): 26.6% at 10 μg/ml
2 | COC(=O)[C@]1(C)C2CC[C@]3(C)C(C(=O)C=C4C5[C@@H](C)[C@H](C)CC[C@]5(C)CC[C@]43C)[C@@]2(C)CC[C@H]1S (stereo partly shown) [Analog 15] | 37.5 | 21.6 |  |  | 
3 | CC(=O)OC1CC[C@@]2(C)C(CC[C@]3(C)C2C(=O)C=C2C4[C@@H](C)[C@H](C)CC[C@]4(C)CC[C@]23C)[C@@]1(C)C(=O)OCCN(C)C (stereo partly shown) [Analog 18] |  |  |  |  | Percentage Inhibition of cell proliferation MCF-7 (MCF-7; Table 4, 10 μg/ml): 5.97 at 10 μg/ml %
4 | CCCCNC(=O)[C@]1(C)C2CC[C@]3(C)C(C(=O)C=C4C5[C@@H](C)[C@H](C)CC[C@]5(C)CC[C@]43C)[C@@]2(C)CC[C@H]1OC(C)=O (stereo partly shown) [Analog 29] |  |  | 33.29 |  | Inhibition of cell proliferation MDA-MB-231, % at 10 ug/ml (MDA-MB-231; Table 2, 10 ug/ml): 36% at 10; Percentage Inhibition of cell proliferation MDA-MB-231 (MDA-MB-231; Table 4, 10 μg/ml): 36% at 10 μg/ml; Inhibition of cell proliferation MCF-7, % at 10 ug/ml (MCF-7; Table 2, 10 ug/ml): 38.3% at; Percentage Inhibition of cell proliferation MCF-7 (MCF-7; Table 4, 10 μg/ml): 38.3 at 10 μg/ml %
5 | CC(=O)O[C@@H]1CC[C@@]2(C)C(CC[C@]3(C)C2C(=O)C=C2C4[C@@H](C)[C@H](C)CC[C@]4(C)CC[C@]23C)[C@@]1(C)C(=O)NC(C)C (stereo partly shown) [Analog 30] | 35 | 46 |  |  | inhibition at 10 µg/mL (MDA-MB-231; [3]): 35%; inhibition at 10 µg/mL (A549): 18%; inhibition at 10 µg/mL (MCF-7; [4]): 46%
6 | COC(=O)CNC(=O)[C@]1(C)C2CC[C@]3(C)C(C(=O)C=C4C5[C@@H](C)[C@H](C)CC[C@]5(C)CC[C@]43C)[C@@]2(C)CC[C@H]1OC(C)=O (stereo partly shown) [Analog 32] | 41 | 14 |  |  | inhibition at 10 µg/mL (MDA-MB-231; [3]): 41%; inhibition at 10 µg/mL (A549): 10%; inhibition at 10 µg/mL (MCF-7; [4]): 14%
7 | CC(=O)O[C@@H]1CC[C@@]2(C)C(CC[C@]3(C)C2C(=O)C=C2C4[C@@H](C)[C@H](C)CC[C@]4(C)CC[C@]23C)[C@@]1(C)C(=O)N1CCOCC1 (stereo partly shown) [Analog 37] | 23 |  |  |  | 
8 | C[C@@H]1CC[C@]2(C)CC[C@]3(C)C(=CC(=O)C4[C@@]5(C)CC[C@@H](O)[C@](C)(C(=O)N6CCN(CCO)CC6)C5CC[C@]43C)C2[C@H]1C (stereo partly shown) [Analog 38] | 20 | 2.73 |  |  | 
9 | CC(=O)O[C@@H]1CC[C@@]2(C)C(CC[C@]3(C)C2C(=O)C=C2C4[C@@H](C)[C@H](C)CC[C@]4(C)CC[C@]23C)[C@@]1(C)C(=O)N1CCN(CCO)CC1 (stereo partly shown) [Analog 39] |  |  | 32.11 | 48.69 | 
10 | CC(=O)O[C@@H]1CC[C@@]2(C)C(CC[C@]3(C)C2C(=O)C=C2C4[C@@H](C)[C@H](C)CC[C@]4(C)CC[C@]23C)[C@@]1(C)C(=O)n1ccnc1 (stereo partly shown) [Analog 40] | 31 | 2.7 | 18.40 | 40.47 | 
11 | CC(=O)O[C@@H]1CC[C@@]2(C)C(CC[C@]3(C)C2C(=O)C=C2C4[C@@H](C)[C@H](C)CC[C@]4(C)CC[C@]23C)[C@@]1(C)C(=O)NC1Cc2ccccc2C1 (stereo partly shown) [Analog 41] | 23 | 3.74 |  |  | 
12 | CC(=O)O[C@@H]1CC[C@@]2(C)C(CC[C@]3(C)C2C(=O)C=C2C4[C@@H](C)[C@H](C)CC[C@]4(C)CC[C@]23C)[C@@]1(C)C(=O)Nc1ccccc1 (stereo partly shown) [Analog 42] | 6 | 2.33 |  |  | 
13 | CNC(=O)[C@]1(C)C2CC[C@]3(C)C(C(=O)C=C4C5[C@@H](C)[C@H](C)CC[C@]5(C)CC[C@]43C)[C@@]2(C)CC[C@H]1OC(C)=O (stereo partly shown) [Analog 43] | 47.8 | 12.6 | 14.57 | 30.90 | 
14 | CC(=O)O[C@@H]1CC[C@@]2(C)C(CC[C@]3(C)C2C(=O)C=C2C4[C@@H](C)[C@H](C)CC[C@]4(C)CC[C@]23C)[C@@]1(C)C(=O)Nc1ccccc1Br (stereo partly shown) [Analog 44] |  |  | 19.88 | 30.02 | IC50 (MDA-MB-231; Table 4): 28.6 µg/mL (≈ 43 µM); IC50 (MCF-7; Table 4): 24.1 µg/mL (≈ 36.1 µM)
15 | CC(=O)O[C@@H]1CC[C@@]2(C)C(CC[C@]3(C)C2C(=O)C=C2C4[C@@H](C)[C@H](C)CC[C@]4(C)CC[C@]23C)[C@@]1(C)C(=O)N(C)CCO (stereo partly shown) [Analog 45] |  |  |  |  | IC50 (MDA-MB-231; Table 4): 12 µg/mL (≈ 21 µM); IC50 (MCF-7; Table 4): 11.9 µg/mL (≈ 20.8 µM)
16 | CC(=O)O[C@@H]1CC[C@@]2(C)C(CC[C@]3(C)C2C(=O)C=C2C4[C@@H](C)[C@H](C)CC[C@]4(C)CC[C@]23C)[C@@]1(C)C(=O)Nc1ccc(O)cc1 (stereo partly shown) [Analog 46] |  | 39 | 19.01 | 30.56 | 
17 | CC(=O)O[C@@H]1CC[C@@]2(C)C(CC[C@]3(C)C2C(=O)C=C2C4[C@@H](C)[C@H](C)CC[C@]4(C)CC[C@]23C)[C@@]1(C)C(=O)NNc1ccccc1 (stereo partly shown) [Analog 47] | 39 | 10 | 35.94 | 54.10 | 
18 | CC(=O)O[C@@H]1CC[C@@]2(C)C(CC[C@]3(C)C2C(=O)C=C2C4[C@@H](C)[C@H](C)CC[C@]4(C)CC[C@]23C)[C@@]1(C)C(=O)NCCN(CCO)CCO (stereo partly shown) [Analog 49] |  |  | 31.55 | 47.02 | Percentage Inhibition of cell proliferation MDA-MB-231 (MDA-MB-231; Table 4, 10 μg/ml): 21.4 at 10 μg/ml %; Percentage Inhibition of cell proliferation MCF-7 (MCF-7; Table 4, 10 μg/ml): 40.9% at 10 ug/ml
19 | CC(=O)O[C@@H]1CC[C@@]2(C)C(CC[C@]3(C)C2CC=C2C4[C@@H](C)[C@H](C)CC[C@]4(C)CC[C@]23C)[C@@]1(C)C(=O)NCCN (stereo partly shown) [Analog 51] |  |  |  |  | IC50 values MDA-MB-231 (MDA-MB-231; Table 4): IC50 at 10.5 μg/ml; IC50 values MCF-7 (MCF-7; Table 4): IC50 at 9.27 μg/ml
20 | CC(=O)O[C@@H]1CC[C@@]2(C)C(CC[C@]3(C)C2CC=C2C4[C@@H](C)[C@H](C)CC[C@]4(C)CC[C@]23C)[C@@]1(C)C(=O)N1CCNCC1 (stereo partly shown) [Analog 54] |  |  | 35.69 | 64.24 | 
21 | COC(=O)CCC(NC(=O)[C@]1(C)C2CC[C@]3(C)C(C(=O)C=C4C5[C@@H](C)[C@H](C)CC[C@]5(C)CC[C@]43C)[C@@]2(C)CC[C@H]1OC(C)=O)C(=O)OC (stereo partly shown) [Analog 56] | 47 | 20 |  |  | 
22 | C[C@@H]1CC[C@]2(C)CC[C@]3(C)C(=CC(Cl)=C4[C@@]5(C)CC[C@@H](O)[C@](C)(C(=O)O)C5CC[C@]43C)C2[C@H]1C (stereo partly shown) [Analog 59] |  |  | 21.46 | 39.24 | 
23 | CC(=O)O[C@@H]1CC[C@]2(C)C3=C(Cl)C=C4C5[C@@H](C)[C@H](C)CC[C@]5(C)CC[C@@]4(C)[C@]3(C)CCC2[C@@]1(C)C(=O)NCCN (stereo partly shown) [Analog 61] |  | 41 |  |  | IC50 (MDA-MB-231; Table 4): 8.55 µg/mL (≈ 14.9 µM)
24 | CC(=O)O[C@@H]1CC[C@]2(C)C3=C(Cl)C=C4C5[C@@H](C)[C@H](C)CC[C@]5(C)CC[C@@]4(C)[C@]3(C)CCC2[C@@]1(C)C(=O)NN (stereo partly shown) [Analog 62] |  |  | 36.26 |  | 
25 | CC(=O)O[C@@H]1CC[C@]2(C)C3=C(Cl)C=C4C5[C@@H](C)[C@H](C)CC[C@]5(C)CC[C@@]4(C)[C@]3(C)CCC2[C@@]1(C)C(=O)N1CCNCC1 (stereo partly shown) [Analog 63] |  |  | 36.20 | 57.86 | 

Source: patent publication US8748598B2, “Analogs of 3-O-acetyl-11-keto-beta-boswellic acid” (Laila Nutraceuticals, priority 2004, dated 2014)
